For 31 molecules, IC50 results are on record in patent publication US10875875B2, “Propionic acid derivatives and methods of use thereof” (Aviara Pharmaceuticals, Inc., priority 2017, dated 2020).

Molecules are shown by their SMILES.

The target of this assay is α4β1 (Homo sapiens, UniProt P05556+P13612). In words: α4β1 integrin inhibition, IC50. Format: binding. The conditions noted are these: read-out: α4β1 IC50.
α4β1, sequence (P13612 34-1032): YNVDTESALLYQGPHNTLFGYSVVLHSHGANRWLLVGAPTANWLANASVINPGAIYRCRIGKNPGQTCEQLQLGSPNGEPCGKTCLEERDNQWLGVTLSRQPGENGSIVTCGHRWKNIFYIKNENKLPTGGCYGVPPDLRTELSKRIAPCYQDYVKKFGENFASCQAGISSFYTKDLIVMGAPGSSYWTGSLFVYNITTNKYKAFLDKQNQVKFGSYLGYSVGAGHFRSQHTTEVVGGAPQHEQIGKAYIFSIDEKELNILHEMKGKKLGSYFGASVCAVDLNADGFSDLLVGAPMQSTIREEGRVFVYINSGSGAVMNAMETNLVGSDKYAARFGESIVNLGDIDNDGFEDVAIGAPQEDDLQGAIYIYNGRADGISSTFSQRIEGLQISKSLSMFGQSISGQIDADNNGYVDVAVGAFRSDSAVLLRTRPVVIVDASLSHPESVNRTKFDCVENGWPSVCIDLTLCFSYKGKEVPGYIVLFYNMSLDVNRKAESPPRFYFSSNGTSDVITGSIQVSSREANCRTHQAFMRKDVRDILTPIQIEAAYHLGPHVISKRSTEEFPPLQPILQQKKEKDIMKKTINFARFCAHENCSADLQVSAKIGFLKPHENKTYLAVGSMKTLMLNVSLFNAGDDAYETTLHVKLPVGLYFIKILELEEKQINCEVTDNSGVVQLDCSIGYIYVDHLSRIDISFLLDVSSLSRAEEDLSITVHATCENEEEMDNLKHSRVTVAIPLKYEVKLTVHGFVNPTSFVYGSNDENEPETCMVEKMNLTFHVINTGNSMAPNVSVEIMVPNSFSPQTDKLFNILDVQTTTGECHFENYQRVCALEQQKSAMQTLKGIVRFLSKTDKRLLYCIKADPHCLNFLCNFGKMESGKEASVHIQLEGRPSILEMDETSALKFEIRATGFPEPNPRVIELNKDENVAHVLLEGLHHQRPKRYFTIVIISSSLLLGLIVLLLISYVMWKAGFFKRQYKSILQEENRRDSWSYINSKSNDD
α4β1, sequence (P05556 21-798): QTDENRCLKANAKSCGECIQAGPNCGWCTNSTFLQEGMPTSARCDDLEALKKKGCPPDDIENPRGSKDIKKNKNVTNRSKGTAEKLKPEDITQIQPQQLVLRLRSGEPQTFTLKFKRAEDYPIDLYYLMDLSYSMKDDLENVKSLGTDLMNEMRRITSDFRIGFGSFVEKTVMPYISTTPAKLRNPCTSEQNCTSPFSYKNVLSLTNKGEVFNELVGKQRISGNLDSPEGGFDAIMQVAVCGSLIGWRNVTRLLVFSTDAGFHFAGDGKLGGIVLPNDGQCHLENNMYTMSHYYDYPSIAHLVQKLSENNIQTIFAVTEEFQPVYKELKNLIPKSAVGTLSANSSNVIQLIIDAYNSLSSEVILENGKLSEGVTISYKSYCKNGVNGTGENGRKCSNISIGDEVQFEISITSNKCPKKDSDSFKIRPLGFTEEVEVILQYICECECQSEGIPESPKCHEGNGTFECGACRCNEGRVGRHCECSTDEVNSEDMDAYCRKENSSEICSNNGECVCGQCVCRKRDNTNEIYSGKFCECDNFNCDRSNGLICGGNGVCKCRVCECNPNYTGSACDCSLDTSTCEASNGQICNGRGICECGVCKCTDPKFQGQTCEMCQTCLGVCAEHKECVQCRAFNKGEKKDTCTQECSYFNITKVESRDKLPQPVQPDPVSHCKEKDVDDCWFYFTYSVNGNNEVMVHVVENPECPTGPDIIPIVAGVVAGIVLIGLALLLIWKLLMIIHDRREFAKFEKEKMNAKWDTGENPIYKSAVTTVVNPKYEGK

For orientation: IC50 means the concentration that inhibits the measured activity by half. Regarding `COc1ccccc1-c1cccc([C@H](CC(=O)O)NC(=O)Nc2c(O)c(C)cn(C)c2=O)c1` [1-456, sodium (S)-3-(3-(1,5-dimethyl-4-oxido-2-oxo-1,2-dihydropyridin-3-yl)ureido)-3-(2′-methoxybiphenyl-3-yl)propanoate], the IC50 is below 200 nM.

Consider `Cc1cc(-c2c(C)cccc2C)cc([C@H](CC(=O)O)NC(=O)Nc2c(O)cc(C)n(C)c2=O)c1` [1-597, sodium (S)-3-(3-(1,6-dimethyl-4-oxido-2-oxo-1,2-dihydropyridin-3-yl)ureido)-3-(2′,5,6′-trimethylbiphenyl-3-yl)propanoate], for which the IC50 was below 20 nM.

Turning to `Cc1ccccc1-c1cc([C@H](CC(=O)O)NC(=O)Nc2c(O)cc(C)n(C)c2=O)ccc1F` [1-611, sodium (S)-3-(3-(1,6-dimethyl-4-oxido-2-oxo-1,2-dihydropyridin-3-yl)ureido)-3-(6-fluoro-2′-methylbiphenyl-3-yl)propanoate], the concentration for half-maximal inhibition (IC50) is below 20 nM.

Turning to `Cc1cn(C)c(=O)c(NC(=O)N[C@@H](CC(=O)O)c2ccc(F)c(-c3ccccc3)c2)c1O` [1-442, sodium (S)-3-(3-(1,5-dimethyl-4-oxido-2-oxo-1,2-dihydropyridin-3-yl)ureido)-3-(6-fluorobiphenyl-3-yl)propanoate], the IC50 was below 20 nM.

On to `Cc1ccccc1-c1cccc([C@H](CC(=O)O)NC(=O)Nc2c(O)cc(C)n(C)c2=O)c1` [1-599, sodium (S)-3-(3-(1,6-dimethyl-4-oxido-2-oxo-1,2-dihydropyridin-3-yl)ureido)-3-(2′-methylbiphenyl-3-yl)propanoate], for which the IC50 was below 20 nM.

On to `COc1ccc([C@H](CC(=O)O)NC(=O)Nc2c(O)cc(C)n(C)c2=O)cc1-c1cccc(OC(F)(F)F)c1` [1-554, sodium (S)-3-(3-(1,6-dimethyl-4-oxido-2-oxo-1,2-dihydropyridin-3-yl)ureido)-3-(6-methoxy-3′-(trifluoromethoxy)biphenyl-3-yl)propanoate], for which the half-inhibitory concentration (IC50) was below 20 nM.

For `Cc1cn(C)c(=O)c(NC(=O)N[C@@H](CC(=O)O)c2cccc(-c3cc(F)cc(F)c3)c2)c1O` [1-453, sodium (S)-3-(3′,5′-difluorobiphenyl-3-yl)-3-(3-(1,5-dimethyl-4-oxido-2-oxo-1,2-di hydropyridin-3-yl)ureido)propanoate], the 50% inhibitory concentration (IC50) is below 20 nM.

`Cc1ccc([C@H](CC(=O)O)NC(=O)Nc2c(O)cc(C)n(C)c2=O)cc1-c1cccc(OC(F)(F)F)c1` [1-577, sodium (S)-3-(3-(1,6-dimethyl-4-oxido-2-oxo-1,2-dihydropyridin-3-yl)ureido)-3-(6-methyl-3′-(trifluoromethoxy)biphenyl-3-yl)propanoate]: the IC50 is below 20 nM.

On to `Cn1ccc(O)c(NC(=O)N[C@@H](CC(=O)O)c2cc(-c3ccccc3)ccc2F)c1=O` [1-570, sodium (S)-3-(4-fluorobiphenyl-3-yl)-3-(3-(1-methyl-4-oxido-2-oxo-1,2-dihydropyridin-3-yl)ureido)propanoate], for which the IC50 is below 20 nM.

For the molecule `Cc1cn(C)c(=O)c(NC(=O)N[C@@H](CC(=O)O)c2cccc(-c3cc(F)ccc3F)c2)c1O` [1-447, sodium (S)-3-(2′,5′-difluorobiphenyl-3-yl)-3-(3-(1,5-dimethyl-4-oxido-2-oxo-1,2-di hydropyridin-3-yl)ureido)propanoate], the IC50 was below 20 nM.

For `Cn1ccc(O)c(NC(=O)N[C@@H](CC(=O)O)c2ccc(-c3cccc(Cl)c3)s2)c1=O` [1-619, sodium (S)-3-(5-(3-chlorophenyl)thiophen-2-yl)-3-(3-(1-methyl-4-oxido-2-oxo-1,2-dihydropyridin-3-yl)ureido)propanoate], the IC50 was below 200 nM.

For `COc1ccc(-c2c(C)cccc2C)cc1[C@H](CC(=O)O)NC(=O)Nc1c(O)ccn(C)c1=O` [1-602, sodium (S)-3-(4-methoxy-2′,6′-dimethylbiphenyl-3-yl)-3-(3-(1-methyl-4-oxido-2-oxo-1,2-dihydropyridin-3-yl)ureido)propanoate], the IC50 is below 20 nM.

Regarding `Cc1cn(C)c(=O)c(NC(=O)NC(CC(=O)O)c2cccc(-c3cncnc3)c2)c1O` (stereo not shown) [1-478, sodium 3-(3-(1,5-dimethyl-4-oxido-2-oxo-1,2-dihydropyridin-3-yl)ureido)-3-(3-(pyrimidin-5-yl)phenyl)propanoate], the half-inhibitory concentration (IC50) was below 200 nM.

`Cn1ccc(O)c(NC(=O)N[C@@H](CC(=O)O)c2cccc(-n3ncc4ccccc43)c2)c1=O` [1-518, sodium (S)-3-(3-(1H-indazol-1-yl)phenyl)-3-(3-(1-methyl-4-oxido-2-oxo-1,2-dihydropyridin-3-yl)ureido)propanoate]: the 50% inhibitory concentration (IC50) was below 20 nM.

For `Cn1ccc(O)c(NC(=O)N[C@@H](CC(=O)O)c2cc(-c3ccccc3)cc(C(F)(F)F)c2)c1=O` [1-618, sodium (S)-3-(3-(1-methyl-4-oxido-2-oxo-1,2-dihydropyridin-3-yl)ureido)-3-(5-(trifluoromethyl)biphenyl-3-yl)propanoate], the 50% inhibitory concentration (IC50) was above 200 nM.

As to `COc1cc(-c2cccc(OC(F)(F)F)c2)cc([C@H](CC(=O)O)NC(=O)Nc2c(O)ccn(C)c2=O)c1` [1-565, sodium (S)-3-(5-methoxy-3′-(trifluoromethoxy)biphenyl-3-yl)-3-(3-(1-methyl-4-oxido-2-oxo-1,2-dihydropyridin-3-yl)ureido)propanoate], the IC50 is below 20 nM.

As for `Cn1ccc(O)c(NC(=O)N[C@@H](CC(=O)O)c2cccc(-c3ccc4c(c3)OCO4)c2)c1=O` [1-516, sodium (S)-3-(3-(benzo[d][1,3]dioxol-5-yl)phenyl)-3-(3-(1-methyl-4-oxido-2-oxo-1,2-dihydropyridin-3-yl)ureido)propanoate], the IC50 is below 20 nM.

As for `Cn1ccc(O)c(NC(=O)N[C@@H](CC(=O)O)c2cccc(-c3ccccn3)c2)c1=O` [1-639, sodium (S)-3-(3-(1-methyl-4-oxido-2-oxo-1,2-dihydropyridin-3-yl)ureido)-3-(3-(pyridin-2-yl)phenyl)propanoate], the IC50 is below 20 nM.

Consider `Cn1ccc(O)c(NC(=O)N[C@@H](CC(=O)O)c2cccc(-c3cccc(Cl)c3)c2)c1=O` [1-506, sodium (S)-3-(3′-chlorobiphenyl-3-yl)-3-(3-(1-methyl-4-oxido-2-oxo-1,2-dihydropyridin-3-yl)ureido)propanoate], for which the IC50 was below 20 nM.

As to `Cc1cn(C)c(=O)c(NC(=O)N[C@@H](CC(=O)O)c2ccc(-c3ccccc3)cc2)c1O` [1-643, sodium (S)-3-(biphenyl-4-yl)-3-(3-(1,5-dimethyl-4-oxido-2-oxo-1,2-dihydropyridin-3-yl)ureido)propanoate], the IC50 was below 200 nM.

Consider `Cc1cc(O)c(NC(=O)N[C@@H](CC(=O)O)c2cccc(-c3cccc(Cl)c3)c2)c(=O)n1C` [1-556, sodium (S)-3-(3′-chlorobiphenyl-3-yl)-3-(3-(1,6-dimethyl-4-oxido-2-oxo-1,2-dihydropyridin-3-yl)ureido)propanoate], for which the IC50 is below 20 nM.

In the case of `Cc1cc(-c2cccc(OC(F)(F)F)c2)cc([C@H](CC(=O)O)NC(=O)Nc2c(O)cc(C)n(C)c2=O)c1` [1-631, sodium (S)-3-(3-(1,6-dimethyl-4-oxido-2-oxo-1,2-dihydropyridin-3-yl)ureido)-3-(5-methyl-3′-(trifluoromethoxy)biphenyl-3-yl)propanoate], the IC50 is below 20 nM.

Turning to `COc1cccc(OC)c1-c1cccc([C@H](CC(=O)O)NC(=O)Nc2c(O)c(C)cn(C)c2=O)c1` [1-479, sodium (S)-3-(2′,6′-dimethoxybiphenyl-3-yl)-3-(3-(1,5-dimethyl-4-oxido-2-oxo-1,2-dihydropyridin-3-yl)ureido)propanoate], the half-inhibitory concentration (IC50) was below 200 nM.

Take `COc1cccc(-c2cc(F)cc([C@H](CC(=O)O)NC(=O)Nc3c(O)cc(C)n(C)c3=O)c2)c1` [1-605, sodium (S)-3-(5-fluoro-3′-methoxybiphenyl-3-yl)-3-(3-(4-hydroxy-1,6-dimethyl-2-oxo-1,2-dihydropyridin-3-yl)ureido)propanoate]: the 50% inhibitory concentration (IC50) was below 20 nM.

For the molecule `Cc1ccccc1-c1cc([C@H](CC(=O)O)NC(=O)Nc2c(O)ccn(C)c2=O)ccc1F` [1-612, sodium (S)-3-(6-fluoro-2′-methylbiphenyl-3-yl)-3-(3-(1-methyl-4-oxido-2-oxo-1,2-dihydropyridin-3-yl)ureido)propanoate], the IC50 is below 20 nM.

On to `Cc1cccc(C)c1-c1ccc([C@H](CC(=O)O)NC(=O)Nc2c(O)cc(C)n(C)c2=O)cc1` [1-638, sodium (S)-3-(3-(1,6-dimethyl-4-oxido-2-oxo-1,2-dihydropyridin-3-yl)ureido)-3-(2′,6′-dimethylbiphenyl-4-yl)propanoate], for which the 50% inhibitory concentration (IC50) is below 200 nM.

As for `O=C(O)C[C@H](NC(=O)Nc1c(O)cc[nH]c1=O)c1cccc(-c2ccc(F)cc2F)c1` [1-494, sodium (S)-3-(2′,4′-difluorobiphenyl-3-yl)-3-(3-(4-oxido-2-oxo-1,2-dihydropyridin-3-yl)ureido)propanoate], the IC50 was below 20 nM.

For the molecule `Cc1ccc([C@H](CC(=O)O)NC(=O)Nc2c(O)c(C)cn(C)c2=O)cc1-c1ccccc1` [1-448, sodium (S)-3-(3-(1,5-dimethyl-4-oxido-2-oxo-1,2-dihydropyridin-3-yl)ureido)-3-(6-methylbiphenyl-3-yl)propanoate], the concentration for half-maximal inhibition (IC50) was below 200 nM.

On to `Cn1ccc(O)c(NC(=O)N[C@@H](CC(=O)O)c2ccc(F)c(-c3c(F)cccc3F)c2)c1=O` [1-546, sodium (S)-3-(3-(1-methyl-4-oxido-2-oxo-1,2-dihydropyridin-3-yl)ureido)-3-(2′,6,6′-trifluorobiphenyl-3-yl)propanoate], for which the IC50 is below 20 nM.

`CCn1cc(C)c(O)c(NC(=O)NC(CC(=O)O)c2cccc(-c3ccc(Cl)c(Cl)c3)c2)c1=O` (stereo not shown) [1-480, sodium 3-(3′,4′-dichlorobiphenyl-3-yl)-3-(3-(1-ethyl-5-methyl-4-oxido-2-oxo-1,2-dihydropyridin-3-yl)ureido)propanoate]: the IC50 was below 200 nM.

Consider `Cn1ccc(O)c(NC(=O)N[C@@H](CC(=O)O)c2cccc(-c3ccc(OC(F)(F)F)cc3)c2)c1=O` [1-510, sodium (S)-3-(3-(1-methyl-4-oxido-2-oxo-1,2-dihydropyridin-3-yl)ureido)-3-(4′-(trifluoromethoxy)biphenyl-3-yl)propanoate], for which the concentration for half-maximal inhibition (IC50) is below 20 nM.
